In data set [1] the test system is rats with dry eye syndrome (extraorbital lacrimal gland excision, ELGE). Kind of data set: Amount of tear secretion (Schirmer test, cobalt chloride paper) in ELGE rats with dry eye syndrome. Format: in vivo, rat. The settings on record: for Change in amount of tear secretion as compared with the ELGE control group: 3% solution as printed, after administration for 14 days; for Tear Volumes, Day 7 / Tear Volumes, Day 14: Table 4, study of YDE-001 to YDE-028, ELGE rats, 3 mg/ml, 5 μl/eye twice daily; for Tear Volumes, Day 7: day 7 of administration; for Tear Volumes, Day 14: day 14 of administration.
Excerpt: (§1) In order to evaluate the eye protection effect on dry eye syndrome by YDE-001 to YDE-028 prepared in Example 1, a total of 320 Sprague-Dawley-type male rats (OrientBio, Seungnam, Korea) were adapted for 7 days. Thereafter, dry eye syndrome was induced in 264 test rats through extraorbital lacrimal gland excision (hereinafter, ELGE). 8 test rats without the eye abnormality were subjected to a sham operation as a control group.
(§2) The rat was systemically anesthetized by inhaling a mixed gas of 2% to 3% of isoflurane (Hana Pharm. Co., Hwasung, Korea), 70% of N2O, and 28.6% of O2 using a rodent anesthesia machine (Surgivet, Waukesha, Wis., USA) and a ventilator (Model 687, Harvard Apparatus, Cambridge, UK). Thereafter, the extraorbital lacrimal gland located in the subdermal area above the masseter muscle and […] was excised through a transverse incision in a size of 10 mm on the anterior part of the left ear tragus. The skin was sutured by a general method. […] After 6 days from the ELGE operation, it was checked through the Schirmer test by measuring the amount of tear secretion whether dry eye syndrome had been induced. Meanwhile, each rat of the control group with the sham operation was checked for the presence and location of the extraorbital lacrimal gland through a skin incision, and the skin was then sutured without the excision thereof (FIG. 4).
(§3) In addition, in order to evaluate the eye protection effect on dry eye syndrome by YDE-029 to YDE-043 prepared in Example 1, a total of 200 Sprague-Dawley-type male rats (OrientBio, Seungnam, Korea) were adapted for 7 days. Dry eye syndrome was induced in 165 test rats through the ELGE. 8 test rats without the eye abnormality were subjected to the sham operation as a control group. The ELGE was carried out as described above.
(§4) For YDE-001 to YDE-028, YY-102 and the 28 YDE-series were each dissolved in physiological saline at a concentration of 3 mg/ml and administered at a dose of 5 μl/eye at 9:30 am and 3:30 pm daily for 14 days after 7 days from the ELGE operation for a total of 28 times. The DS solution was dissolved in physiological saline at a concentration of 30 mg/ml and administered at a dose of […] twice a day for 14 days after 7 days from the ELGE operation for a total of 28 times. For the sham control and the ELGE control groups, the same stimulation as the administration was applied. In order to prevent excessive eye dryness, the same volume of physiological saline was applied in the same manner in place of the test substances.
as §4, with “Further, for YDE-029 to YDE-043,” for “For YDE-001 to YDE-028,”, “YDE-029 to YDE-043, YY-102 and” for “YDE-001 to YDE-028, YY-102 and”, “and the 15 YDE-series were” for “and the 28 YDE-series were”, “the test substances (FIG. 7).” for “the test substances.”
After 6 days from the ELGE surgery, the changes in the amount of tear secretion were measured at day 7 and day 14 after the administration of YDE-001 to YDE-043. The amount of tear secretion was measured by the […] travel distance of tears absorbed by cobalt chloride paper in a size of 1×15 mm (Toyo Roshi Kaisha, Japan).
The cobalt chloride paper was placed in the lateral canthus of a rat for 60 seconds to absorb tears (FIG. 9). The length of the area absorbed from the corner of the cobalt chloride paper was measured with an electronic digital caliper (Mytutoyo, Tokyo, Japan) (FIG. 8).

Data set [2] concerns cornea of rats with dry eye syndrome (ELGE). Kind of data set: Corneal permeability of fluorescent dye (corneal damage) in ELGE rats with dry eye syndrome. Format: in vivo, rat. The settings on record: Table 6, study of YDE-001 to YDE-028, 3 mg/ml, 5 μl/eye twice daily, day 14.
Excerpt: as §1, §2, §3, §4
as §4, with “Further, for YDE-029 to YDE-043,” for “For YDE-001 to YDE-028,”, “YDE-029 to YDE-043, YY-102 and” for “YDE-001 to YDE-028, YY-102 and”, “and the 15 YDE-series were” for “and the 28 YDE-series were”, “the test substances (FIG. 7).” for “the test substances.”
After YDE-001 to YDE-028 were each administered to the eyes […], the changes in the corneal permeability were checked.
In order to measure the corneal permeability, Zolethyl 50™ (Virbac Lab., Carros, France), an animal anesthetic, was intraperitoneally injected at a dose of 25 mg/kg. Thereafter, saline containing a 1% (v/v) fluorescent solution (fluorescein sodium salt, Tokyo Kasei Kogyo Co., Tokyo, Japan) was applied to the eyes at a dose of 5 μl/eye. The eyes thus treated were closed and fixed with a tape. After 1 hour, the remaining fluorescent solution was removed using a cotton swab (FIG. 12). […]

Data set [3] is described as follows: Stability in aqueous solution under long-term storage conditions (related substances). It is filed as physicochemical. The settings on record: 25° C., 75% RH. How it is done:
In order to confirm the stability of each test substance in an aqueous solution, […] of each sample was dissolved in 1 ml of water to a concentration of 1 mg/ml, which was then charged to a glass vial, plugged with a rubber cap, sealed with an aluminum cap, and stored under long-term storage conditions (25° C., 75% RH). The stability of the test substance was evaluated by measuring the amount of related substances at the time of one week, two weeks, four weeks, eight weeks, and twelve weeks under the long-term storage conditions.

Square brackets hold non-standard residues; d marks the D form. Peptide text beside a SMILES is read from it. ξ: configuration not given here. Hyp = O=C(O)[C@@H]1C[C@@H](O)CN1; Ile(3ξ) = CCC(C)[C@H](N)C(=O)O; Thr(3ξ) = CC(O)[C@H](N)C(=O)O

Consider `O=c1ccn([C@@H]2O[C@H](COP(=O)(O)OP(=O)(O)OP(=O)(O)OP(=O)(O)OC[C@H]3O[C@@H](n4ccc(=O)[nH]c4=O)[C@H](O)[C@@H]3O)[C@@H](O)[C@H]2O)c(=O)[nH]1` [DS, diquafosol sodium, reference compound], for which the “Change in amount of tear secretion as compared with the ELGE control group” value in data set [1] (study of YDE-001 to YDE-028) and in data set [1] (study of YDE-029 to YDE-043) was “increased” in each case.
Turning to `CC(C)C[C@H](NC(=O)CNC(=O)[C@H](CCC(=O)O)NC(=O)[C@H](CCC(N)=O)NC(=O)CNC(=O)[C@@H]1C[C@@H](O)CN1)C(=O)N[C@@H](C)C(=O)NCC(=O)N1CCC[C@H]1C(=O)N[C@@H](CCCCN)C(=O)O` [YDE-001] (H-[Hyp]GQEGLAGPK-OH), in data set [1], the “Tear Volumes, Day 7” value came to 4.88 ± 1.62 mm^3 and the “Tear Volumes, Day 14” value was determined as 5.92 ± 2.19 mm^3. Also, the “Permeability of fluorescent dye” value in data set [2] came to 25.49 ± 11.62%. Besides, the “Amount of related substances (after 12 weeks)” value (“Amount of related substances” below) in data set [3] stood at 3.92%.
The matching figures for `CC(C)C[C@H](NC(=O)CNC(=O)[C@H](CC(N)=O)NC(=O)[C@H](CCC(N)=O)NC(=O)CNC(=O)[C@@H]1C[C@@H](O)CN1)C(=O)N[C@@H](C)C(=O)NCC(=O)N1CCC[C@H]1C(=O)N[C@@H](CCCCN)C(=O)O` [YDE-002] (H-[Hyp]GQNGLAGPK-OH): 3.84 ± 1.16 mm^3, 5.01 ± 1.67 mm^3, 38.26 ± 11.25% and 4.93%.
On to `CC(C)C[C@H](NC(=O)CNC(=O)[C@H](CCC(N)=O)NC(=O)[C@H](CCC(N)=O)NC(=O)CNC(=O)[C@@H]1C[C@@H](O)CN1)C(=O)N[C@@H](C)C(=O)NCC(=O)N1CCC[C@H]1C(=O)N[C@@H](CCCCN)C(=O)O` [YDE-003] (H-[Hyp]GQQGLAGPK-OH), for which, in data set [1], the “Tear Volumes, Day 7” value amounted to 4.13 ± 1.76 mm^3 and the “Tear Volumes, Day 14” value is on record as 4.88 ± 1.57 mm^3. Also, in data set [2], the “Permeability of fluorescent dye” value was found to be 40.45 ± 6.46%. For the same molecule, in data set [3], the “Amount of related substances” value came out at 6.86%.
Regarding `CC(C)C[C@H](NC(=O)CNC(=O)[C@H](Cc1cnc[nH]1)NC(=O)[C@H](CCC(N)=O)NC(=O)CNC(=O)[C@@H]1C[C@@H](O)CN1)C(=O)N[C@@H](C)C(=O)NCC(=O)N1CCC[C@H]1C(=O)N[C@@H](CCCCN)C(=O)O` [YDE-004] (H-[Hyp]GQHGLAGPK-OH), in data set [1], the “Tear Volumes, Day 7” value was found to be 3.42 ± 1.06 mm^3 and the “Tear Volumes, Day 14” value is listed as 5.19 ± 1.84 mm^3. In data set [2], the “Permeability of fluorescent dye” value was determined as 35.05 ± 11.74%. For the same molecule, the “Amount of related substances” value in data set [3] turned out to be 2.11%.
Take `CC(C)C[C@H](NC(=O)CNC(=O)[C@H](CCCCN)NC(=O)[C@H](CCC(N)=O)NC(=O)CNC(=O)[C@@H]1C[C@@H](O)CN1)C(=O)N[C@@H](C)C(=O)NCC(=O)N1CCC[C@H]1C(=O)N[C@@H](CCCCN)C(=O)O` [YDE-005] (H-[Hyp]GQKGLAGPK-OH): in data set [1], the “Tear Volumes, Day 7” value is recorded as 3.85 ± 0.93 mm^3 and the “Tear Volumes, Day 14” value was 5.08 ± 1.91 mm^3. Moreover, in data set [2], the “Permeability of fluorescent dye” value came to 37.98 ± 11.53%. For the same molecule, in data set [3], the “Amount of related substances” value stood at 2.97%.
For `CC(C)C[C@H](NC(=O)CNC(=O)[C@H](CO)NC(=O)[C@H](CCC(N)=O)NC(=O)CNC(=O)[C@@H]1C[C@@H](O)CN1)C(=O)N[C@@H](C)C(=O)NCC(=O)N1CCC[C@H]1C(=O)N[C@@H](CCCCN)C(=O)O` [YDE-006] (H-[Hyp]GQSGLAGPK-OH), in that order: 3.44 ± 1.69 mm^3, 5.35 ± 1.68 mm^3, 33.23 ± 13.26% and 3.67%.
The matching figures for `CC(C)C[C@H](NC(=O)CNC(=O)[C@@H](NC(=O)[C@H](CCC(N)=O)NC(=O)CNC(=O)[C@@H]1C[C@@H](O)CN1)C(C)O)C(=O)N[C@@H](C)C(=O)NCC(=O)N1CCC[C@H]1C(=O)N[C@@H](CCCCN)C(=O)O` (stereo partly drawn) [YDE-007] (H-[Hyp]GQ[Thr(3ξ)]GLAGPK-OH): 3.91 ± 1.28 mm^3, 5.45 ± 1.26 mm^3, 32.79 ± 10.77% and 3.76%.
The matching figures for `CC(C)C[C@H](NC(=O)CNC(=O)[C@H](C)NC(=O)[C@H](CCC(N)=O)NC(=O)CNC(=O)[C@@H]1C[C@@H](O)CN1)C(=O)N[C@@H](C)C(=O)NCC(=O)N1CCC[C@H]1C(=O)N[C@@H](CCCCN)C(=O)O` [YDE-008] (H-[Hyp]GQAGLAGPK-OH): 4.57 ± 1.25 mm^3, 6.10 ± 2.36 mm^3, 20.32 ± 11.87% and 4.42%.
Turning to `CC(C)C[C@H](NC(=O)CNC(=O)[C@@H](NC(=O)[C@H](CCC(N)=O)NC(=O)CNC(=O)[C@@H]1C[C@@H](O)CN1)C(C)C)C(=O)N[C@@H](C)C(=O)NCC(=O)N1CCC[C@H]1C(=O)N[C@@H](CCCCN)C(=O)O` [YDE-009] (H-[Hyp]GQVGLAGPK-OH), in data set [1], the “Tear Volumes, Day 7” value amounted to 3.76 ± 1.21 mm^3 and the “Tear Volumes, Day 14” value worked out at 4.54 ± 1.11 mm^3. Further, the “Change in amount of tear secretion as compared with the ELGE control group” value in data set [1] (study of YDE-001 to YDE-028) was “did not show any significant changes”. Moreover, the “Permeability of fluorescent dye” value in data set [2] is listed as 41.50 ± 7.86%. Besides, the “Amount of related substances” value in data set [3] was determined as 4.71%.
For `CCC(C)[C@H](NC(=O)[C@H](CCC(N)=O)NC(=O)CNC(=O)[C@@H]1C[C@@H](O)CN1)C(=O)NCC(=O)N[C@@H](CC(C)C)C(=O)N[C@@H](C)C(=O)NCC(=O)N1CCC[C@H]1C(=O)N[C@@H](CCCCN)C(=O)O` (stereo partly drawn) [YDE-010] (H-[Hyp]GQ[Ile(3ξ)]GLAGPK-OH), in that order: 3.42 ± 1.31 mm^3, 4.35 ± 1.36 mm^3, “did not show any significant changes”, 49.29 ± 12.06% and 4.39%.
On to `CC(C)C[C@H](NC(=O)CNC(=O)[C@H](Cc1ccccc1)NC(=O)[C@H](CCC(N)=O)NC(=O)CNC(=O)[C@@H]1C[C@@H](O)CN1)C(=O)N[C@@H](C)C(=O)NCC(=O)N1CCC[C@H]1C(=O)N[C@@H](CCCCN)C(=O)O` [YDE-012] (H-[Hyp]GQFGLAGPK-OH), for which, in data set [1], the “Tear Volumes, Day 7” value turned out to be 3.68 ± 0.99 mm^3 and the “Tear Volumes, Day 14” value was 5.67 ± 1.86 mm^3. In data set [2], the “Permeability of fluorescent dye” value is on record as 31.01 ± 11.38%. For the same molecule, the “Amount of related substances” value in data set [3] is reported as 3.57%.

The record behind these values is patent US11613558B2, “Peptides and pharmaceutical compositions for treating eye diseases” (Yuyu Pharma, Inc., priority 2018, dated 2023).
